In this experiment the target is T1, Recombinant human FEN1 protein (Homo sapiens, UniProt P39748).
T1 construct: made in house
As to the kind of experiment: fluorescence-based HTS assay for FEN1 inhibitors. It is filed as biochemical. Conditions: dilution series on each screening plate. Here is the method:
reactions containing 50 mM Tris pH 8.0, 10 mM MgCl2, 1 mM DTT and 0.01% Tween-20.
Reactions were incubated at 37 °C for 10 min. To inactivate the enzyme, an equal volume of
stop buffer (90% Formamide, 20 mM EDTA) was added and the mixture was heated at 95 °C
for 10 min. Following separation on a 15% polyacrylamide-urea denaturing gel, substrate
and product bands were visualized by a Typhoon Trio+ Variable Model Imager (Amersham
Bioscience/GE Healthcare, Piscataway, NJ), and the signals were quantified using
ImageQuant software (Molecular Dynamics, GE Healthcare).
Development of HTS assay to isolate novel FEN1 inhibitors: To facilitate the search for
novel FEN1 inhibitors, we have developed a fluorogenic donor/quencher reporter pair to
monitor generation of reaction product in real time (28) (Supplementary Figure S4A ).
Recombinant human FEN1 protein was purified from bacteria as described previously (27).
All oligodeoxynucleotides were purchased from Biosearch Technologies, Inc., (Novato, CA,
USA). The double-stranded DNA substrate containing a double flap region used in the […]
BHQ-2 quencher (which absorbs 6-TAMRA fluorescence when in close proximity) is lost,
and FEN1 activity is measured indirectly as an increase in fluorescence signal (Figure 3).
Kinetic fluorescence data were collected on ViewLux high-throughput CCD imager (Perkin […]
by absence of fluorescence. […]

T1 sequence (P39748 whole entry): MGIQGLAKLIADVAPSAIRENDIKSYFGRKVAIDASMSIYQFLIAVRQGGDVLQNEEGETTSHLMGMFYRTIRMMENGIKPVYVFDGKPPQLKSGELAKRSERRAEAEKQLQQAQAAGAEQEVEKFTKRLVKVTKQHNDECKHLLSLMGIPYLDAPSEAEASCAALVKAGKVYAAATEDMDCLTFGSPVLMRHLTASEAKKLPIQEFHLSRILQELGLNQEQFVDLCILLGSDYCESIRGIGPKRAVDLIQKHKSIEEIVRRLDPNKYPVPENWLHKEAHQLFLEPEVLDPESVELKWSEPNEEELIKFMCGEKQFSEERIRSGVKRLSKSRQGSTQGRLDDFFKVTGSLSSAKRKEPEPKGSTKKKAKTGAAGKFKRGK

On to `Cc1csc2c1c(=O)n(O)c(=O)n2-c1ccccc1` [PTPD, 3-hydroxy-5-methyl-1-phenylthieno [2,3 d]pyrimidine-2,4(1H,3H)-dione], for which the “inhibition pattern of control dilution series in the screen” value was “uniform inhibition pattern”.

Values taken from publication PMC8070745, “FEN1 Blockade for Platinum Chemo-Sensitization and Synthetic Lethality in Epithelial Ovarian Cancers” (Cancers, 2021).
